Source: patent US10940139B2, “Compounds that interact with the Ras superfamily for the treatment of cancers, inflammatory diseases, rasopathies, and fibrotic disease” (Shy Therapeutics LLC, priority 2017, dated 2021)
Where two headings read alike, the source gives them in different places.

How the values were obtained:
Experiment in all cases: Ras GTP binding domain inhibition assay (labeled GTP)
[1] = target: KRas G12C/Q61H double mutant (Homo sapiens (Human), UniProt P01116, G12C/Q61H); conditions: 20 μM compound
Method in brief: (§1)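 Ni-plate capture of His-KRas (3-10 μg/ml, o/n, 4° C); Tris pH 7.5/MgCl2/DTT buffer, 1% DMSO. Cpd 20 μM or titration, 3 h RT. Cy3/Cy5-GTP 45 min RT, wash, fluorescence of bound GTP.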

[2] = target: KRas G12D/Q61H double mutant (Homo sapiens (Human), UniProt P01116, G12D/Q61H); conditions: for inhibition at 20 µM: 20 μM compound; for IC50: serial dilution, read-out: KRas G12D Q61H (classes E-H, IC50)
Method in brief: as §1

KRas Q61H mutant = KRas Q61H mutant (Homo sapiens (Human), UniProt P01116, Q61H); conditions: 20 μM compound
Method in brief: as §1

[3] = read-out: % Inhibition at 20 μM KRas G12C Q61H
[4] = read-out: % Inhibition at 20 μM KRas G12D Q61H
[5] = read-out: % Inhibition at 20 μM KRas Q61H
[6] = KRas G12C/Q61H double mutant, read-out: % Inhibition at 20 μM of K-Ras mutant and wild-type protein, KRas G12C Q61H
[7] = KRas G12D/Q61H double mutant, read-out: % Inhibition at 20 μM of K-Ras mutant and wild-type protein, KRas G12D Q61H
[8] = KRas Q61H, read-out: % Inhibition at 20 μM of K-Ras mutant and wild-type protein, KRas Q61H

KRas G12D/Q61H double mutant, sequence (P01116-2 other isoform, or with tags, fused parts or gaps G12D/Q61H): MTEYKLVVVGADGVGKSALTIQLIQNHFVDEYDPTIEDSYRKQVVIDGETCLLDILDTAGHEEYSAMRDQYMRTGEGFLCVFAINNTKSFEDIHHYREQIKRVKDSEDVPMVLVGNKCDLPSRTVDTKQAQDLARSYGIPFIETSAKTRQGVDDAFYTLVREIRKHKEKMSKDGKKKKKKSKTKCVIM
KRas G12C/Q61H double mutant, sequence (P01116-2 other isoform, or with tags, fused parts or gaps G12C/Q61H): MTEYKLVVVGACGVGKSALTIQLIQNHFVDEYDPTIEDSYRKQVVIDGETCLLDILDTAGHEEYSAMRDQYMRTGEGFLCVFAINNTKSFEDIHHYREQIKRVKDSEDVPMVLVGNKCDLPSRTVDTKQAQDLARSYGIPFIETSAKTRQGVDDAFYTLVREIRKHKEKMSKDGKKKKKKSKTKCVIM
KRas Q61H mutant, sequence (P01116-2 other isoform, or with tags, fused parts or gaps Q61H): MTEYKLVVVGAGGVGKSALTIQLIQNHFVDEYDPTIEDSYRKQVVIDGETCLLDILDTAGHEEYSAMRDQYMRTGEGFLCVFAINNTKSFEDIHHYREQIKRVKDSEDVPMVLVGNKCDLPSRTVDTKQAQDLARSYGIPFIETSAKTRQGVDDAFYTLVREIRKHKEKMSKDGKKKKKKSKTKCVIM

SMILES | inhibition at 20 µM [1, 3] [%] | inhibition at 20 µM [2, 4] [%] | inhibition at 20 µM (KRas Q61H mutant; [5]) [%] | IC50 [2] [µM] | inhibition at 20 µM [1, 6] [%] | inhibition at 20 µM [2, 7] [%] | inhibition at 20 µM (KRas Q61H mutant; [8]) [%]
Oc1nc(-c2ccccn2)nc2c(-c3ccc(CN4CCOCC4)cc3)csc12 [drawing 2882] | 25 to 50 | 25 to 50 | 25 to 50 | – | – | – | –
Oc1nc(-c2ccccn2)nc2c(-c3ccc(OC4CCCCC4)cc3)csc12 [drawing 2887] | 25 to 50 | 25 to 50 | 25 to 50 | – | – | – | –
Nc1nc(-c2ccccn2)nc2c(Br)csc12 [drawing 2892] | 1 to 25 | 25 to 50 | 25 to 50 | – | – | – | –
Cc1sc2c(N)nc(-c3ccccn3)nc2c1Br [drawing 2893] | 25 to 50 | 25 to 50 | 1 to 25 | – | – | – | –
Nc1nc(-c2ccccn2)nc2scc(Br)c12 [drawing 2894] | 25 to 50 | 25 to 50 | 51 to 75 | – | – | – | –
COC(=O)c1csc2nc(-c3ccccn3)nc(N)c12 [drawing 2895] | 25 to 50 | 25 to 50 | 25 to 50 | – | – | – | –
COc1nccc(CCNC(=O)c2csc3nc(-c4ccccn4)nc(N4CCOCC4)c23)n1 [drawing 2897] | 25 to 50 | 1 to 25 | 25 to 50 | – | – | – | –
O=C(NCCc1ccnc(O)n1)c1csc2nc(-c3ccccn3)nc(N3CCOCC3)c12 [drawing 2898] | 51 to 75 | 1 to 25 | 51 to 75 | – | – | – | –
CCn1nc(C)cc1-c1csc2c(O)nc(-c3ccccn3)nc12 [drawing 2903] | 51 to 75 | 51 to 75 | 51 to 75 | 11 to 30 | – | – | –
Oc1nc(-c2ccccn2)nc2c(-c3ccnn3-c3ccccn3)csc12 [drawing 2904] | 25 to 50 | 1 to 25 | 25 to 50 | – | – | – | –
Nc1nc(-c2ccccn2)nc2scc(C(=O)O)c12 [drawing 2906] | 51 to 75 | 25 to 50 | 51 to 75 | – | – | – | –
COC(=O)c1cc2nc(-c3ccccn3)nc(O)c2s1 [drawing 2907] | 51 to 75 | 51 to 75 | 51 to 75 | > 30 | – | – | –
Oc1nc(-c2ccccn2)nc2c(-c3cnc4ccccc4c3)csc12 [drawing 3462] | – | – | – | – | 25 to 50 | 25 to 50 | 51 to 75
Oc1nc(-c2ccccn2)nc2c(-c3ccc(Cl)c(Cl)c3)csc12 [drawing 3463] | – | – | – | – | 1 to 25 | 25 to 50 | 25 to 50
Oc1nc(-c2ccccn2)nc2c(-c3cncc(F)c3)csc12 [drawing 3464] | – | – | – | – | 1 to 25 | 1 to 25 | 1 to 25
Oc1nc(-c2ccccn2)nc2c(-c3cc(C(F)(F)F)ccc3F)csc12 [drawing 3465] | – | – | – | – | 1 to 25 | 1 to 25 | 1 to 25
Oc1nc(-c2ccccn2)nc2c(-c3cncc(C(F)(F)F)c3)csc12 [drawing 3466] | – | – | – | – | 0 | 1 to 25 | 1 to 25
Cc1cncc(-c2csc3c(O)nc(-c4ccccn4)nc23)c1 [drawing 3467] | – | – | – | – | 25 to 50 | 25 to 50 | 25 to 50
Cc1cc2nc(-c3ccccn3)nc(O)c2s1 [drawing 3472] | – | – | – | – | 51 to 75 | 51 to 75 | 51 to 75
COC(=O)c1c(C)sc2c(O)nc(-c3ccccn3)nc12 [drawing 3473] | – | – | – | – | 51 to 75 | 51 to 75 | 51 to 75
Cc1c(Br)sc2c(O)nc(-c3ccccn3)nc12 [drawing 3474] | – | – | – | – | 25 to 50 | 25 to 50 | 51 to 75
COC(=O)c1sc2c(O)nc(-c3ccccn3)nc2c1C [drawing 3476] | – | – | – | – | 51 to 75 | 25 to 50 | 51 to 75
Oc1nc(-c2ccccn2)nc2c3c(sc12)CNC3 [drawing 3477] | – | – | – | – | 76 to 100 | 51 to 75 | 76 to 100
